Test results published in patent publication US9925232B2, “Methods and compositions comprising desmopressin in combination with a 5-alpha reductase inhibitor” (Serenity Pharmaceuticals LLC, priority 2013, dated 2018).

How the values were obtained:
[1] = system: patients experiencing on average at least two nocturnal voids per night; experiment: Clinical study: reduction in the average number of nocturnal voids (Responder / Non-Responder); type: in vivo, human
Experimental: A clinical study was performed to evaluate the impact of administering desmopressin in combination with a 5-alpha reductase inhibitor alone or together with an alpha-adrenergic receptor antagonist to reduce the occurrence of nocturnal voiding by a patient. Experimental procedures and results are described below. […] Patients received as a nasal spray either (i) a 1.5 μg dosage of desmopressin or (ii) placebo. The desmopressin nasal spray (or placebo) was administered daily just prior to bedtime for a duration of twelve weeks. In addition, patients previously diagnosed as suffering from benign prostatic hyperplasia (BPH) and receiving a 5-alpha reductase inhibitor alone or together with an alpha-adrenergic receptor antagonist for treatment of BPH continued to receive the 5-alpha reductase inhibitor alone or together with the alpha-adrenergic receptor antagonist at the same dosage and frequency used prior to enrollment in this study. All patients in this study who received a 5-alpha reductase inhibitor alone or together with an alpha-adrenergic receptor antagonist for treatment of their BPH had been receiving the 5-alpha reductase inhibitor alone or together with the alpha-adrenergic receptor antagonist for at least 2 months before enrollment in this study and experienced on average at least two nocturnal voids per night before enrollment in this study. The desmopressin nasal spray was prepared by combining aliquots of an Emulsion Stock Solution and a Buffer Solution as described below. To produce the desmopressin nasal spray, aliquots of the 30 μg/mL solution were filtered to eliminate any bacterial contamination and diluted with an equal volume of emulsion stock solution to produce aseptic, preservative free dose forms comprising 15 μg/mL desmopressin, pH 5.5, containing 2% cyclopentadecanolide. These were bottled in sterile pump spray bottles fitted with a Pfeiffer APF pump sprayers that deliver 100 μL per metered spray (i.e., 1.5 μg desmopressin (i.e., 1500 ng desmopressin) per spray). The liquid contains no detectable microorganisms. Patients recorded the occurrence of nocturnal voids during the study period. Patients were designated to be a “Responder” if after receiving treatment there was a reduction in the average number of nocturnal voids during the treatment period.

[2] = human, in vivo; cited from earlier work
[3] = BPH patients receiving 5-alpha reductase inhibitor alone or together with alpha-adrenergic receptor antagonist, 1.5 μg nasal spray daily, twelve weeks, n = 14
[4] = BPH patients, second component none (no 5-alpha reductase inhibitor or alpha-adrenergic receptor antagonist), 1.5 μg nasal spray daily, twelve weeks, n = 42
[5] = BPH patients, alpha-adrenergic receptor antagonist and 5-alpha reductase inhibitor, 1.5 μg desmopressin nasal spray daily, twelve weeks, n = 14
[6] = BPH patients, second component 5-alpha reductase inhibitor, 1.5 μg desmopressin nasal spray daily prior to bedtime, twelve weeks, n = 14
[7] = male patients without BPH, second component none, 1.5 μg nasal spray daily, twelve weeks, n = 34

SMILES: NC(=O)CC[C@@H]1NC(=O)[C@H](Cc2ccccc2)NC(=O)[C@H](Cc2ccc(O)cc2)NC(=O)CCSSC[C@@H](C(=O)N2CCC[C@H]2C(=O)N[C@H](CCCN=C(N)N)C(=O)NCC(N)=O)NC(=O)[C@H](CC(N)=O)NC1=O [Desmopressin, 1-desamino-8-D-arginine vasopressin]
- Difference in Responder Response Rate Between Desmopressin-treated Patients & Those Receiving Placebo ([1]; BPH patients receiving 5-alpha reductase inhibitor alone or together with alpha-adrenergic receptor antagonist): 40%
- Non-Responder Patients: Total Number of Patients that Received Desmopressin [1, 3]: 6
- Percent Total Non-Responder Patients that Received Desmopressin [1, 3]: 43% (6/14)
- Percent Total Responder Patients that Received Desmopressin (absolute response rate) [1, 3]: 57%
- Responder Patients: Total Number of Patients that Received Desmopressin [1, 3]: 8
- Difference in Responder Response Rate Between Desmopressin-treated Patients & Those Receiving Placebo ([1]; BPH patients receiving 5-alpha reductase inhibitor alone or together with alpha-adrenergic receptor antagonist, listed as desmopressin): 40%
- Difference in Responder Response Rate Between Desmopressin-treated Patients & Those Receiving Placebo ([1]; BPH patients that did not receive a 5-alpha reductase inhibitor or an alpha-adrenergic receptor antagonist): 14%
- Difference in Responder Response Rate Between Desmopressin-treated Patients & Those Receiving Placebo ([1]; BPH patients that did not receive a 5-alpha reductase inhibitor or an alpha-adrenergic receptor antagonist, listed as desmopressin): 14%
- Non-Responder Patients: Number of Patients that Received Desmopressin [1, 4]: 24
- Percent Total Non-Responder Patients that Received Desmopressin [1, 4]: 57%
- Percent Total Responder Patients that Received Desmopressin (absolute response rate) [1, 4]: 43%
- Responder Patients: Number of Patients that Received Desmopressin [1, 4]: 18
- Percent Total Responder Patients that Received Desmopressin (absolute response rate) ([1]; BPH patients, second component none (no 5-alpha reductase inhibitor or alpha-adrenergic receptor antagonist), 1.5 μg nasal spray daily, twelve weeks, n = 42, listed as desmopressin): 43%
- Non-Responder Patients: Number of Patients that Received Desmopressin [1, 5]: 2
- Responder Patients: Number of Patients that Received Desmopressin [1, 5]: 5
- Non-Responder Patients: Number of Patients that Received Desmopressin [1, 6]: 4
- Responder Patients: Number of Patients that Received Desmopressin [1, 6]: 3
- Difference in Responder Response Rate Between Desmopressin-treated Patients & Those Receiving Placebo ([1]; male patients not diagnosed with BPH, not receiving a 5-alpha reductase inhibitor or an alpha-adrenergic receptor antagonist): 18%
- Difference in Responder Response Rate Between Desmopressin-treated Patients & Those Receiving Placebo ([1]; male patients not diagnosed with BPH, not receiving a 5-alpha reductase inhibitor or an alpha-adrenergic receptor antagonist, listed as desmopressin): 18%
- Non-Responder Patients: Number of Patients that Received Desmopressin [1, 7]: 16
- Percent Total Non-Responder Patients that Received Desmopressin [1, 7]: 47%
- Percent Total Responder Patients that Received Desmopressin (absolute response rate) [1, 7]: 53%
- Responder Patients: Number of Patients that Received Desmopressin [1, 7]: 18
- Percent Total Responder Patients that Received Desmopressin (absolute response rate) ([1]; male patients without BPH, second component none, 1.5 μg nasal spray daily, twelve weeks, n = 34, listed as desmopressin): 53%
- half-life (known clearance rate) [2]: 1.5 to 2.0 h
